Experimental data: paper PMC5630020 (Genes & Development, 2017)
pKd: −log10 of the molar value.

Assays:
[1] = target: T1, MglA–SspA complex (heterodimer) (Francisella tularensis, UniProt Q5NFG1+Q5NHJ6)
[2] = target: T1, MglA–SspA complex (heterodimer); assay: biochemical

T1 sequence (Q5NFG1 1-205): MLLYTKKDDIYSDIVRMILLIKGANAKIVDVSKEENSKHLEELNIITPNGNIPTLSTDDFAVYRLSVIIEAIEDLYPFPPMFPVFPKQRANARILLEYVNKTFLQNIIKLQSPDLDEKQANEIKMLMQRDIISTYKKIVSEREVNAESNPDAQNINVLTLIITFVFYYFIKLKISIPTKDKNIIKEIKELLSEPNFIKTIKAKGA
T1 sequence (Q5NHJ6 1-210): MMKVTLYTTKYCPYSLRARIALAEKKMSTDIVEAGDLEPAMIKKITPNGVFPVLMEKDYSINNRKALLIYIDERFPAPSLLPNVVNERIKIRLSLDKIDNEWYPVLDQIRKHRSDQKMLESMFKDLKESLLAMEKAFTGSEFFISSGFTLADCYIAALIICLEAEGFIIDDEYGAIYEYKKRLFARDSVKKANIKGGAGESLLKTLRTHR

SMILES | DRaCALA competition against 32P-ppGpp [1] | pKd [2]
Nc1nc2c(ncn2[C@@H]2O[C@H](COP(=O)(O)OP(=O)(O)OP(=O)(O)O)[C@@H](O)[C@H]2O)c(=O)[nH]1 [GTP] | GTP competed weakly, and ATP, CTP, and UTP showed no detectable competition | 
Nc1nc2c(ncn2[C@@H]2O[C@H](COP(=O)(O)OP(=O)(O)O)[C@@H](OP(=O)(O)OP(=O)(O)O)[C@H]2O)c(=O)[nH]1 [ppGpp] |  | ~4.92
